Columns and labels:
MC38 colon cancer cells = assay: MC38 colon tumor growth (tumor volume) in C57BL/6 mice; type: in vivo
Description: Tumor volumes were measured and plotted. (B) MC38 colon cancer cells were injected subcutaneously into the right flank of C57BL/6 mice. After seven days when tumors became palpable, one group was treated with 5-HTR7 antagonist SB-269970 (n=6 mice; 3 mg/kg/day) or left untreated (n=6 mice). Tumor volume was measured and plotted. (C) After seven days of the setting of tumor growth, one group was treated with a serotonin transporter blocker (SSRI) sertraline hydrochloride (n=6 mice; 15 mg/kg/week) or left untreated (n=6 mice). Tumor volume was measured and plotted. (D) C57BL/6 mice were given subcutaneously injected MC38 cells. After seven days of tumor growth, one group of mice was treated with different doses of 5-HTR2B antagonist SB-215505 (n=6). Tumor volume was measured and plotted. (E) C57BL/6 mice were given subcutaneously injected MC38 cells. After seven days of the tumor growth, one group of mice was treated with different doses of 5-HTR2B antagonist SB-215505 (n=6), one group treated with 5-HTR2B agonist BW-723C86 (n=6; 4 mg/kg/day). Tumor volume was measured and plotted. (F) MC38 cells were subcutaneously injected into C57BL/6 mice. After seven days when the tumor became palpable in mice, one group of mice was treated with FDA-approved 5-HTR2B antagonist cariprazine (Carispec; Sun pharma) via oral gavage (n=5 mice; dose 5 mg/kg body weight/day) or left untreated (n=5 mice). Tumor growth was measured and plotted. […] All the statistical analysis was performed using Student's ‘t’ test or two-way ANOVA using Sidak's multiple comparison test. *P<0.05; **P<0.01; ***P<0.00; ****P<0.0001 Error bar represents mean±standard error of means (SEM).

MC38 cells [1] = assay: MC38 tumor growth in immuno-compromised NRG mice; type: in vivo; details: 4 mg/kg/day from day 7; not as much as in wild-type mice (FIG. 8B)
Description: FIG. 8 depicts that 5-HTR2B antagonism promotes antigen-specific immune response to the tumor: (A) Experimental protocol for SB-215505 treatment in MC38 tumor-bearing NRG mice. In brief, (B) MC38 cells were injected subcutaneously into NRG mice. After seven days of the tumor growth setting in mice, one group of mice was treated with 5-HTR2B antagonist SB-215505 (n=5 mice) or left untreated (n=5 mice). Tumour volumes were measured and plotted. (C) Experimental protocol for adoptive transfer of SB-215505 pre-treated naïve or MC38 tumor primed immune cells in MC38 tumor-bearing NRG mice. In brief: (D) MC38 cells were injected subcutaneously into NRG mice. Those mice were adoptively transferred with naïve (n=4 mice) or MC38 tumor primed immune cells (n=4 mice) or SB-215505 pre-treated naïve (n=4 mice) or SB-215505 pre-treated MC38 tumor primed immune cells (n=4 mice) from the day of tumor inoculation. After the tumor begins to appear, tumor volumes were measured and plotted. […]
MC38 and MC38-cOVA cells were injected subcutaneously into the right flank of male C57BL/6 or NRG mice (0.5×10^6 cells/mouse in 150 μl PBS). […] Tumor volume was measured using a Vernier caliper on each alternate day or every third day as soon as the tumor appears. The volume of the tumor was measured using the formula V=L×W^2/2, where L=length of the tumor (mm) and W=width of the tumor (mm). […]

B16F10 cells = assay: B16F10 melanoma model, tumor volume; type: in vivo, C57BL/6J mice; details: SB-215505 vs untreated, from day 7 (FIG. 7H)
Description: (§1) FIG. 7 depicts that antagonizing the 5-HTR2B in mice inhibits breast and colon tumor growth: (A) MC38 colon cancer cells were injected subcutaneously into the right flank of C57BL/6 mice. […] Tumor volumes were measured and plotted. (B) MC38 colon cancer cells were injected subcutaneously into the right flank of C57BL/6 mice. After seven days when tumors became palpable, one group was treated with 5-HTR7 antagonist SB-269970 (n=6 mice; 3 mg/kg/day) or left untreated (n=6 mice). Tumor volume was measured and plotted. (C) After seven days of the setting of tumor growth, one group was treated with a serotonin transporter blocker (SSRI) sertraline hydrochloride (n=6 mice; 15 mg/kg/week) or left untreated (n=6 mice). Tumor volume was measured and plotted. (D) C57BL/6 mice were given subcutaneously injected MC38 cells. After seven days of tumor growth, one group of mice was treated with different doses of 5-HTR2B antagonist SB-215505 (n=6). Tumor volume was measured and plotted. (E) C57BL/6 mice were given subcutaneously injected MC38 cells. After seven days of the tumor growth, one group of mice was treated with different doses of 5-HTR2B antagonist SB-215505 (n=6), one group treated with 5-HTR2B agonist BW-723C86 (n=6; 4 mg/kg/day). Tumor volume was measured and plotted. […] Tumor growth was measured and plotted. […] Tumour volumes were measured and plotted. […] Tumour volumes were measured and plotted. […]

4T1-Luc2 cells = assay: 4T1-Luc2 breast cancer model, tumor volume; type: in vivo, BALB/c mice; details: SB-215505 vs untreated, from day 7 (FIG. 7G)
Description: as §1, with “(E) C57BL/6 mice were given subcutaneously injected MC38 cells. After seven days of the tumor growth, one group of mice was treated with different doses of 5-HTR2B antagonist SB-215505 (n=6), one group treated with 5-HTR2B agonist BW-723C86 (n=6; 4 mg/kg/day).” left out
FIG. 16 depicts the effect of the 5-HTR2B antagonist on the FDA-approved chemotherapy drug treatment: (A) BALB/C mice were inoculated with 4T1-Luc2 cells in the mammary fat pad. […] Tumor volume was measured and plotted. […]

PD-L1 = PD-L1 expression on MC38 cells in vitro (flow cytometry, mRNA); type: cell-based, mouse; details: BW-723C86 50 μM, serotonin 100 μM, RS-127445 50 μM, 72 hours (mRNA 48 hours) (FIG. 13A-E)
Description: FIG. 13 depicts 5-HTR2B signaling promotes PD-L1 expression on the MC38 cell line in vitro: (A-B) MC38 cells are treated with 5-HTR2B agonist (BW-723C86-50 μM), serotonin (100 μM), and 5-HTR2B antagonist (RS-127445-50 μM) for 72 hours, and the PD-L1 expression was checked by flow cytometry and the percentage of PD-L1^+ MC38 cells was plotted. (C-D) MFI of PD-L1 from the above experiment were plotted as histogram overlay (C) or as statistical data points (D). (E) Relative PD-L1 mRNA expression in MC38 cells following BW-723C86 and RS-127445 treatment for 48 hours. Here the values are shown as a fold change as compared to control MC38 cells. (F) Serum PD-L1 level was measured by ELISA of naïve C57BL/6J mice, control MC38 tumor-bearing mice, BW-723C86 (5 mg/kg/day) treated MC38 tumor-bearing mice and RS-127445 (5 mg/kg/day) treated MC38 tumor-bearing mice after 14 days of tumor inoculation. All the statistical analysis was performed using either Student's ‘t’ test or two-way ANOVA using Sidak's multiple comparison test. *P<0.05; **P<0.01; […]; ****P<0.0001 Error bar represents mean±standard error of means (SEM).
To understand it, investigations were done on whether 5-HTR2B signaling also affects the surface expression of molecules that alters inflammatory and cytotoxic immune cells. Among different molecules, PD-L1 is of particular interest as it is an immune checkpoint ligand that affects cytotoxic T-cell responses toward cancer. […] (FIG. 13F).

MC38 cells [2] = assay: MTT cell viability assay; type: cell-based, mouse; details: graded dose; reduced serum media; 48 hours of stimulation
Description: FIG. 6 depicts that 5-HTR2B signalling in colon cancer affects cell proliferation and viability: Colon cancer MC38 cells were treated with serotonin (100 μM), 5-HTR2B agonist (BW-723C86; 50 μM), or 5-HTR2B antagonist (SB-215505; 50 μM) for 48 hours, and cell cycle analysis was performed by propidium iodide staining using flow cytometry. MC38 cells were also treated with a graded dose of 5-HTR2B agonist (BW-723C86) or serotonin. MTT assay was performed to measure cell viability. (A) After treatment with 5-HTR2B agonist BW-723C86, serotonin, or 5-HTR2B antagonist SB-215505, the relative cell cycle analysis is shown. (B) Relative cell viability data of MC38 cells following treatment of graded doses of 5-HTR2B agonist BW-723C86 or serotonin are shown. The data shown are representative of one of the three independent experiments. (C) MC38 tumor sections from the control tumor and 5-HTR2B antagonist treated tumor were stained for CD31 and the number of CD31^+ micro-blood vessels/mm^2 of tissue sections was counted and plotted to observe angiogenesis. Error bar represents ±standard error of the mean (SEM).
MC38 cells were cultured at a density of 0.5×10^4 cells/well in 96 well plates (flat bottom) and were allowed to adhere for 24 hours. […] Then, MTT crystals were dissolved with DMSO, and the reading was taken at 590 nm in an ELISA reader (Thermofisher). […]

[3] = 4 mg/kg/day from day 7 after inoculation, vs untreated (FIG. 7A)

Cc1nc2sccn2c(=O)c1CCN1CCC(=C(c2ccc(F)cc2)c2ccc(F)cc2)CC1 [Ritanserin]
MC38 tumor growth (MC38 colon cancer cells; [3]): controls tumor growth to some extent | MC38 tumor growth (MC38 colon cancer cells; 4 mg/kg/day from day 7 after inoculation, vs untreated (FIG. 7A), listed as ritanserin): did not prevent tumor growth

Cc1cc2c(cc1Cl)N(C(=O)Nc1cccc3ncccc13)CC2 [SB-215505]
MC38 tumor growth in NRG mice (MC38 cells [1]): suppressed to some extent | MC38 tumor growth (MC38 colon cancer cells; [3]): efficiently control the tumor growth | most efficient dose in reducing MC38 tumor growth (MC38 colon cancer cells; dose-response, doses from 0.5 mg/kg/day to 4 mg/kg/day (FIG. 7D)): 4 mg/kg/day | tumor burden, mice melanoma model (B16F10 cells): reduced tumor burden | tumor burden, mice breast cancer model (4T1-Luc2 cells): reduced tumor burden

NCCc1c[nH]c2ccc(O)cc12 [serotonin]
expression of PD-L1 in the colon cancer cells (PD-L1): did not significantly alter the PD-L1 expression | viability of MC38 cells (MC38 cells [2]): enhanced the viability of MC38 cells

CN(C)C(=O)N[C@H]1CC[C@H](CCN2CCN(c3cccc(Cl)c3Cl)CC2)CC1 [cariprazine]
MC38 tumor growth (MC38 colon cancer cells; oral gavage, 5 mg/kg body weight/day (FIG. 7F)): significant reduction in MC38 tumor growth
